Columns and labels:
[1] = biological target: T1, Haspin (Homo sapiens, UniProt Q8TF76); assay: Kinase panel 33P-ATP filter assay, Haspin; type: biochemical; conditions: HCl salt tested; ATP Conc. 20 μM (Km); read-out: Compound IC50 (nM) Haspin
T1 sequence (Q8TF76 1-798): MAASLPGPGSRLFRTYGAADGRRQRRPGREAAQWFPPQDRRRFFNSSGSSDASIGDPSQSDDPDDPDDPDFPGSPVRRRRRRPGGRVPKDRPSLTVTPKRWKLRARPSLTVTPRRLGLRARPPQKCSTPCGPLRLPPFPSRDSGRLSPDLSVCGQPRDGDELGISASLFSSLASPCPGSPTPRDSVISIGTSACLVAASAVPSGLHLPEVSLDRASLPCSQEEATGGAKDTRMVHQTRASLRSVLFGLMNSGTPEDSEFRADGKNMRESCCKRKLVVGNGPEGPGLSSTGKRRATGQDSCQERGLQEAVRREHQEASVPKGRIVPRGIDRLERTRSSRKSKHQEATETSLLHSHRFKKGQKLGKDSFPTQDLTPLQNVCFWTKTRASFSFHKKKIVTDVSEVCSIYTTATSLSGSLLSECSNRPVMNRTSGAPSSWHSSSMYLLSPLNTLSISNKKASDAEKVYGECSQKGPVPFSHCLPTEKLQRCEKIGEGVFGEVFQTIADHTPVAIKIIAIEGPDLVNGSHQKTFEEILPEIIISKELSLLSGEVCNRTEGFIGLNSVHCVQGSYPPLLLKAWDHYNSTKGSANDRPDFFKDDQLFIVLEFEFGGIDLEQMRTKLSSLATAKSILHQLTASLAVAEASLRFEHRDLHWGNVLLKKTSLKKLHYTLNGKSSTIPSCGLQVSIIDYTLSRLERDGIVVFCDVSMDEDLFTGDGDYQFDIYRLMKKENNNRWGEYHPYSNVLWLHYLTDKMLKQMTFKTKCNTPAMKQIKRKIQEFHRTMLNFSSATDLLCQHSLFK
Protocol: The HCl salts of S enantiomer and the R enantiomer of compound A were tested against a panel of kinases.
Compounds were received as powder and resuspended to 10 mM DMSO stock. Compounds were tested in 10-dose IC50 mode with a 3-fold serial dilution starting at 10 μM. Control compound, staurosporine, was tested in 10-dose IC50 mode with 4-fold serial dilution starting at 20 μM.
Reaction Conditions: Buffer Conditions: 20 mM HEPES ((4-(2-hydroxyethyl)-1-piperazineethanesulfonic acid; pH 7.5), 10 mM MgCl2, 1 mM EGTA (Ethyleneglycol-bis(p-aminoethyl)-N,N,N′,N′-tetraacetic Acid), 0.01% Brij35, 0.02 mg/ml BSA (Bovine serum albumin), 0.1 mM Na3VO4, 2 mM DTT (Dithiothreitol), 1% DMSO. Reaction Procedure: 1. Prepare indicated substrate in freshly prepared reaction buffer. 2. Deliver required cofactors to the substrate solution above. 3. Deliver indicated kinase into the substrate solution and mix gently. 4. Deliver compounds in DMSO into the kinase reaction mixture utilizing acoustic technology (Echo550). 5. Deliver ^33P-ATP (specific activity 0.01 μCi/μl final) into the reaction mixture to initiate the reaction. 6. Incubate kinase reaction for 120 minutes at room temperature. 7. […] Data Analysis: Kinase activity data were expressed as the percent remaining kinase activity in test samples compared to vehicle (dimethyl sulfoxide) reactions. […]

[2] = biological target: T2, CB1 (h) (Homo sapiens, UniProt P21554); assay: CEREP panel CB1 (h) antagonist effect, cAMP HTRF; type: cell-based; conditions: HCl salt tested; CHO cells, CP 55940 (1 nM)
T2 construct: expressed in transfected cells; host or cells: CHO cells
Excerpt: The use of in vitro pharmacological screening against a diverse range of targets (receptors, ion channels, enzymes and transporters) is used to identify undesirable off-target activity that may cause adverse drug reactions in humans. Screening panels (e.g. SafetyScreen44™ Panel, Eurofins) comprise a selection of off-targets linked with known issues in humans that could hinder or halt the development of drug candidates or market withdrawal if discovered after a drug is approved. The HCl salts of the S enantiomer and the R enantiomer of compound A were tested against a panel of such targets.
The tests were carried out according to the methods described in the following tables and indicated literature references.

T2 sequence (P21554 whole entry): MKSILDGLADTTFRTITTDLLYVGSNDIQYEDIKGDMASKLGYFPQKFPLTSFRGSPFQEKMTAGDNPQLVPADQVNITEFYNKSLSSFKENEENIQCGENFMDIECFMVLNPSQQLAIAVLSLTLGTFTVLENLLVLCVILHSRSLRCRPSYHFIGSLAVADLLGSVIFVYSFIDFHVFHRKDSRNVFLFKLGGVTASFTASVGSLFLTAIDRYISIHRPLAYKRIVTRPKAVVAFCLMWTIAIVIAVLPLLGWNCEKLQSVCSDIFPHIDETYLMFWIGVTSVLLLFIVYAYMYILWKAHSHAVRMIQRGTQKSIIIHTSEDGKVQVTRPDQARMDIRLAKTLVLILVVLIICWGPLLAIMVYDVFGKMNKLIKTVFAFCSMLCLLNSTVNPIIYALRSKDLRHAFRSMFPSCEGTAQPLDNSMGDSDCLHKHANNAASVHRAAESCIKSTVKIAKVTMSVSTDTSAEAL

NCc1ccc(C(=O)Nc2ccncc2F)cc1-c1cccc(C(=O)Nc2ccc(SC[C@@H]3CCOC3=O)cc2)c1 [R-enantiomer] was tested, and the IC50 [1] was 134 nM and the “CB1 (h) (antagonist effect) (IC50)” value [2] was “Inactive”.
NCc1ccc(C(=O)Nc2ccncc2F)cc1-c1cccc(C(=O)Nc2ccc(SC[C@H]3CCOC3=O)cc2)c1 [S-enantiomer] was tested, and the IC50 [1] was 297 nM and the “CB1 (h) (antagonist effect) (IC50)” value [2] was “Inactive”.
